From US20240252651A1, “METHOD OF DELIVERING NUCLEIC ACIDS INTO CELLS” (GUANGZHOU LIDE BIOMEDICINE TECHNOLOGY CO., LTD., priority 2021, published 2024)
Entries after “also recorded” stand apart in the source; their conditions may differ.

Legend:
Hela cells [1] = assay: Transfection of GFP-expressing plasmid DNA in Hela cells (flow cytometer); assay type: cell-based, human; settings: plasmid DNA 0.5 μg/well, material 0.25 to 8 μg/well (dosages per FIG. 4), 24 h
Procedure: In this experiment, with GFP-expressing plasmid DNA as a reporter gene, a gene transfection efficiency of a cationic lipid analog material in Hela cells was detected. A specific method was as follows:
Hela cells were inoculated in a 24-well plate and cultured in an incubator for 12 h; each of different cationic lipid analog materials (0.25 μg/well to 8 μg/well) was mixed with GFP-expressing plasmid DNA (0.5 μg/well) in 40 μL of a sodium acetate buffer (25 mM, pH 5.2), and resulting mixtures each were allowed to stand for 10 min and then diluted with 460 μL of an Opti-MEM medium to obtain plasmid DNA-loaded cationic lipid analog complex particle solutions; a medium for the Hela cells in the plate was removed, then the HeLa cells were washed once with PBS, and the complex particle solutions were added; and the cells were cultured for 24 h, and then a plasmid DNA transfection efficiency in cells was analyzed by a flow cytometer. A commercial gene transfection reagent Lipofectamine 2000 was adopted as a positive control.

Hela cells [2] = assay: Transfection of luciferase-expressing plasmid DNA in HeLa cells (luciferase expression); assay type: cell-based, human; settings: plasmid DNA 0.5 μg, 24 h, luciferase expression level, FIG. 5
Procedure: In this example, with luciferase-expressing plasmid DNA as a reporter gene, a gene transfection efficiency of a cationic lipid analog material in HeLa cells was detected. A specific operation method was as follows: Hela cells were inoculated in a 96-well plate and cultured in an incubator for 12 h; each of different cationic lipid analog materials was mixed with luciferase-expressing plasmid DNA (0.5 μg) in 40 μL of a sodium acetate buffer (25 mM, pH 5.2), and resulting mixtures each were allowed to stand for 10 min and then diluted with 460 μL of an Opti-MEM medium to obtain plasmid DNA-loaded cationic lipid analog complex particle solutions; a medium for the Hela cells in the plate was removed, then the Hela cells were washed once with PBS, and the complex particle solutions were added in a volume of 125 μL; the cells were cultured for 24 h, then a resulting culture supernatant was discarded, and the cells were fully lysed; and a substrate was added at 50 μl/well, and an expression level of luciferase was detected by a multi-mode microplate reader.

DC 2.4 cells = assay: Transfection of eGFP-mRNA in DC 2.4 cells (FCM and LSCM); assay type: cell-based, mouse; settings: mRNA 0.2 μg/well, material 0.25 to 2 μg/well (dosages per FIG. 7), 24 h
Procedure: In this experiment, with eGFP-mRNA as model mRNA, an mRNA transfection efficiency of a cationic lipid analog material in DC 2.4 cells was detected. A specific operation method was as follows:
DC 2.4 cells were inoculated in a 48-well plate and cultured in an incubator for 12 h; each of different cationic lipid analog materials (0.25 μg/well to 2 μg/well) was mixed with cGFP-expressing mRNA (0.2 μg/well) in 20 μL of a sodium acetate buffer (25 mM, pH 5.2), and resulting mixtures each were allowed to stand for 10 min and then diluted with 230 μL of a Opti-MEM medium to obtain mRNA-loaded complex particle solutions; a medium for the […] were washed once with PBS, and the complex particle solutions were added; and the cells were cultured for 24 h, an mRNA transfection efficiency in cells was observed by FCM and LSCM. A commercial gene transfection reagent Lipofectamine 2000 was adopted as a positive control.

| Compound | transfection efficiency of GFP-expressing plasmid DNA, compared with commercial transfection reagent Lipofectamine 2000 (Hela cells [1]) | mRNA transfection efficiency (eGFP-mRNA), compared with Lipofectamine 2000 (DC 2.4 cells; FIG. 7-9) | also measured |
| --- | --- | --- | --- |
| CCCCCCCCCCCCCC(=O)N(CCCN(C)C)C(C(=O)NCCCCCCNC(=O)C(C(C)C)N(CCCN(C)C)C(=O)CCCCCCCCCCCCC)C(C)C (stereo not drawn) [I1R2C14A1] | reaches or is higher than | high transfection efficiency | transfection efficiency of GFP-expressing plasmid DNA, compared with commercial transfection reagent Lipofectamine 2000 (Hela cells [1]; listed as 11R2C14A1): equivalent to or higher than; transfection efficiency of luciferase-expressing plasmid DNA, compared with Lipofectamine 2000 (Hela cells [2]): equivalent to or higher than; mRNA transfection efficiency (eGFP-mRNA), compared with Lipofectamine 2000 (DC 2.4 cells; FIG. 7-9, listed as 11R2C14A1): equivalent to or higher than |
| CCCCCCCCCCCCCCCC(=O)N(CCCN(C)C)C(C(=O)NCCCCCCNC(=O)C(C(C)C)N(CCCN(C)C)C(=O)CCCCCCCCCCCCCCC)C(C)C (stereo not drawn) [I1R2C16A1] |  |  | mRNA transfection efficiency (eGFP-mRNA), compared with Lipofectamine 2000 (DC 2.4 cells; FIG. 7-9, listed as 11R2C16A1): high transfection efficiency; also recorded: equivalent to or higher than |
| CCCCCCCC/C=C\CCCCCCCC(=O)N(CCCN(C)C)C(C(=O)NCCCCCCNC(=O)C(C(C)C)N(CCCN(C)C)C(=O)CCCCCCC/C=C\CCCCCCCC)C(C)C (stereo not drawn) [I1R2C18-1A1] |  |  | mRNA transfection efficiency (eGFP-mRNA), compared with Lipofectamine 2000 (DC 2.4 cells; FIG. 7-9, listed as 11R2C18-1A1): high transfection efficiency; also recorded: equivalent to or higher than |
| CCCCC/C=C\C/C=C\CCCCCCCC(=O)N(CCCN(C)C)C(C(=O)NCCCCCCNC(=O)C(C(C)C)N(CCCN(C)C)C(=O)CCCCCCC/C=C\C/C=C\CCCCC)C(C)C (stereo not drawn) [I1R2C18-2A1] | reaches or is higher than | equivalent to or higher than | transfection efficiency of GFP-expressing plasmid DNA, compared with commercial transfection reagent Lipofectamine 2000 (Hela cells [1]; listed as 11R2C18-2A1): equivalent to or higher than; mRNA transfection efficiency (eGFP-mRNA), compared with Lipofectamine 2000 (DC 2.4 cells; FIG. 7-9, listed as 11R2C18-2A1): high transfection efficiency |
| CCCCCCCCCCCCCCCCCC(=O)N(CCCN(C)C)C(C(=O)NCCCCCCNC(=O)C(C(C)C)N(CCCN(C)C)C(=O)CCCCCCCCCCCCCCCCC)C(C)C (stereo not drawn) [I1R2C18A1] |  |  | mRNA transfection efficiency (eGFP-mRNA), compared with Lipofectamine 2000 (DC 2.4 cells; FIG. 7-9, listed as 11R2C18A1): high transfection efficiency; also recorded: equivalent to or higher than |
| CCCCCCCCCCCCCC(=O)N(CCC1CCCN1C)C(C(=O)NCCCCCCNC(=O)C(C(C)C)N(CCC1CCCN1C)C(=O)CCCCCCCCCCCCC)C(C)C (stereo not drawn) [I1R11C14A1] | reaches or is higher than | high transfection efficiency; also recorded: equivalent to or higher than | transfection efficiency of GFP-expressing plasmid DNA, compared with commercial transfection reagent Lipofectamine 2000 (Hela cells [1]; listed as 11R11C14A1): equivalent to or higher than; transfection efficiency of luciferase-expressing plasmid DNA, compared with Lipofectamine 2000 (Hela cells [2]): equivalent to or higher than |
| CCCCCCCCCCCCCCCC(=O)N(CCC1CCCN1C)C(C(=O)NCCCCCCNC(=O)C(C(C)C)N(CCC1CCCN1C)C(=O)CCCCCCCCCCCCCCC)C(C)C (stereo not drawn) [I1R11C16A1] |  | high transfection efficiency; also recorded: equivalent to or higher than |  |
| CCCCCCCCCCCCCCCCCC(=O)N(CCC1CCCN1C)C(C(=O)NCCCCCCNC(=O)C(C(C)C)N(CCC1CCCN1C)C(=O)CCCCCCCCCCCCCCCCC)C(C)C (stereo not drawn) [I1R11C18A1] |  |  | mRNA transfection efficiency (eGFP-mRNA), compared with Lipofectamine 2000 (DC 2.4 cells; FIG. 7-9, listed as 11R11C18A1): high transfection efficiency; also recorded: equivalent to or higher than |
| CCCCCCCCCCCCCC(=O)N(CCN(C)C)C(C(=O)NCCOCCOCCNC(=O)C(C(C)C)N(CCN(C)C)C(=O)CCCCCCCCCCCCC)C(C)C (stereo not drawn) [I2R1C14A1] | reaches or is higher than; also recorded: equivalent to or higher than | high transfection efficiency; also recorded: equivalent to or higher than | transfection efficiency of luciferase-expressing plasmid DNA, compared with Lipofectamine 2000 (Hela cells [2]): equivalent to or higher than |
| CCCCCCCCCCCCCCCC(=O)N(CCN(C)C)C(C(=O)NCCOCCOCCNC(=O)C(C(C)C)N(CCN(C)C)C(=O)CCCCCCCCCCCCCCC)C(C)C (stereo not drawn) [I2R1C16A1] | reaches or is higher than; also recorded: equivalent to or higher than | high transfection efficiency; also recorded: equivalent to or higher than | transfection efficiency of luciferase-expressing plasmid DNA, compared with Lipofectamine 2000 (Hela cells [2]): equivalent to or higher than |
| CCCCC/C=C\C/C=C\CCCCCCCC(=O)N(CCN(C)C)C(C(=O)NCCOCCOCCNC(=O)C(C(C)C)N(CCN(C)C)C(=O)CCCCCCC/C=C\C/C=C\CCCCC)C(C)C (stereo not drawn) [I2R1C18-2A1] | reaches or is higher than; also recorded: equivalent to or higher than |  |  |
| CCCCCCCCCCCCCC(=O)N(CCCN(C)C)C(C(=O)NCCOCCOCCNC(=O)C(C(C)C)N(CCCN(C)C)C(=O)CCCCCCCCCCCCC)C(C)C (stereo not drawn) [I2R2C14A1] | reaches or is higher than; also recorded: equivalent to or higher than | high transfection efficiency; also recorded: equivalent to or higher than |  |
| CCCCCCCCCCCCCC(=O)N(CCCN(CC)CC)C(C(=O)NCCOCCOCCNC(=O)C(C(C)C)N(CCCN(CC)CC)C(=O)CCCCCCCCCCCCC)C(C)C (stereo not drawn) [I2R3C14A1] |  | high transfection efficiency; also recorded: equivalent to or higher than |  |
| CCCCCCCCCCCCCC(=O)N(CCC1CCCN1C)C(C(=O)NCCOCCOCCNC(=O)C(C(C)C)N(CCC1CCCN1C)C(=O)CCCCCCCCCCCCC)C(C)C (stereo not drawn) [I2R11C14A1] | reaches or is higher than; also recorded: equivalent to or higher than | high transfection efficiency; also recorded: equivalent to or higher than |  |
| CCCCCCCCCCCCCCCC(=O)N(CCC1CCCN1C)C(C(=O)NCCOCCOCCNC(=O)C(C(C)C)N(CCC1CCCN1C)C(=O)CCCCCCCCCCCCCCC)C(C)C (stereo not drawn) [I2R11C16A1] | reaches or is higher than; also recorded: equivalent to or higher than | high transfection efficiency; also recorded: equivalent to or higher than |  |
| CCCCCCCC/C=C\CCCCCCCC(=O)N(CCC1CCCN1C)C(C(=O)NCCOCCOCCNC(=O)C(C(C)C)N(CCC1CCCN1C)C(=O)CCCCCCC/C=C\CCCCCCCC)C(C)C (stereo not drawn) [I2R11C18-1A1] | reaches or is higher than; also recorded: equivalent to or higher than | high transfection efficiency; also recorded: equivalent to or higher than |  |
| CCCCCCCCCCCCCCCCCC(=O)N(CCC1CCCN1C)C(C(=O)NCCOCCOCCNC(=O)C(C(C)C)N(CCC1CCCN1C)C(=O)CCCCCCCCCCCCCCCCC)C(C)C (stereo not drawn) [I2R11C18A1] | reaches or is higher than; also recorded: equivalent to or higher than | high transfection efficiency; also recorded: equivalent to or higher than |  |
